The values below come from PubChem BioAssay (NCI).

Holding throughout (test): NCI tumour cell line growth inhibition, 48 h
The test system of assay [1] is A498 renal.
The test system of assay [2] is IGROV1 ovarian.
The subject of assay [3] is SNB-75 CNS.
The test system of assay [4] is RPMI-8226 leukemia.
Assay [5] deals with NCI-H226 lung.
In assay [6] the test system is NCI-H522 lung.
In assay [7] the test system is LOX IMVI melanoma.
The test system of assay [8] is MALME-3M melanoma.
Assay [9] has as its system MDA-MB-435.
Assay [10] has as its system DU-145 prostate.

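Protocol summary: plate cells (96-well), add compound at 5 concentrations, incubate 48 h, interpolate endpoints linearly. GI50: concentration for 50% inhibition of growth. TGI: total growth inhibition.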

For the compound `O=C(NCCO)c1ccc([N+](=O)[O-])cc1`, the TGI in assay [1], in [2], in [3], in [4], in assay [5] and in assay [6] was more than 100 µM throughout. Besides, the TGI in assay [7] and in [8] was more than 100 µM each time.
For the compound `C[N+](C)(C)CC1CCC/C1=N/O` (centres undefined), the TGI is more than 100 µM in assay [1]; more than 100 µM in [2]; more than 100 µM in assay [3]; 47 µM in assay [4]; more than 100 µM in assay [5]; more than 100 µM in [6]. Further, the TGI in [7] is 38.4 µM; in [8], more than 100 µM.
Consider `COc1cc(-c2cc(-c3ccc(Nc4ccnc5cc(Cl)ccc45)cc3)nc(N3CCOCC3)n2)cc(OC)c1OC`, for which the GI50 in assay [1] is 28.2 µM; in assay [2], 1.91 µM; in assay [3], 1.65 µM; in assay [9], 1.75 µM; in [4], 1.57 µM; in assay [5], 11.4 µM. Besides, the GI50 in [6] is 2.03 µM; in assay [8] it was 1.86 µM. Further, the TGI is 74.4 µM in [1]; 4.03 µM in assay [2]; 3.44 µM in assay [3]; 3.48 µM in assay [9]; 5.02 µM in assay [4]; 38.2 µM in assay [5]. In addition, the TGI was 5.03 µM in assay [6] and 3.97 µM in [8].
Turning to `Cn1c(=O)c(NC(=O)C(Cl)(Cl)Cl)nc2ccccc21`, the TGI in [1], in [2], in assay [3], in [4], in assay [5] and in [6] was more than 100 µM each time. Moreover, the TGI in [7] and in assay [8] was more than 100 µM throughout.
For the compound `O=C1NC(=O)C(=Nc2cccc3c(=O)[nH][nH]c(=O)c23)C(c2nc3ccccc3s2)C1=O` (centres undefined), the TGI in [1], in assay [2], in [3], in assay [5], in [6] and in assay [8] was more than 100 µM in each case.
As to `O=C(CCC(=O)Nc1ccc(Cl)c(Cl)c1)CC(=O)c1ccc(F)cc1`, the TGI in [2], in assay [5], in assay [7] and in assay [8] was more than 100 µM each time.
On to `COC(=O)CCC1CCc2c(OC)ccc(OC)c2C1=O` (centres undefined), for which the TGI in assay [2], in [3], in assay [4], in [6], in assay [7] and in assay [8] was more than 100 µM each time.
As for `Cc1ccc(NC(=O)C2C(=O)N(c3ccc(C)c(C)c3)C(=O)/C2=N\NC(N)=O)cc1C` (centres undefined), the TGI in [1], in [2], in [3], in assay [4], in [5] and in assay [6] was more than 100 µM each time. The TGI in [7] and in assay [8] was more than 100 µM throughout.
With `Cc1noc2c1C(=O)CCC2`, the TGI in assay [3], in [4], in assay [5], in [6], in [7] and in [8] was more than 100 µM each time.
As for `COc1cccc2c1-c1c(c3ccc([N+](=O)[O-])cc3c(=O)n1CCCN)C2=O`, the GI50 was 15.7 µM in [1]; 0.289 µM in assay [2]; 5.76 µM in [3]; 1.65 µM in [4]; 1.06 µM in assay [10]; 7.67 µM in assay [5]. Besides, the GI50 is 0.043 µM in assay [6] and 1.2 µM in [7]. Besides, the TGI in [1] stood at 32.8 µM; in assay [2], 1.99 µM; in assay [3], 25.1 µM; in assay [4], 5.84 µM; in [10] it was 6.15 µM; in assay [5], 34.3 µM. For the same compound, the TGI turned out to be 1.89 µM in assay [6] and 2.64 µM in assay [7].
In the case of `CN(C)c1ccc(/C=C/c2ccc(/C=C/c3ccc(N(C)C)cc3)cc2)cc1`, the TGI in assay [1], in assay [2], in assay [3], in assay [4], in [5] and in assay [6] was more than 100 µM in each case. Also, the TGI in assay [7] and in [8] was more than 100 µM throughout.
Consider `O=S(=O)(O)c1ccc(N=Nc2nc(C(F)(F)F)c(C(F)(F)F)[nH]2)cc1`, for which the TGI in [2] was more than 100 µM; in assay [3], more than 100 µM; in [4], more than 100 µM; in assay [5] it was more than 100 µM; in [7], 29.2 µM; in [8] it was more than 100 µM.
As to `COC(=O)C(=CNC(N)=O)C(=O)OC`, the TGI in assay [2], in assay [9], in assay [4], in assay [10], in assay [6] and in [7] was more than 100 µM throughout.
For the compound `O=C(CSc1ncn[nH]1)C[P+](c1ccccc1)(c1ccccc1)c1ccccc1`, the TGI in assay [2] was more than 100 µM; in assay [3] it was more than 100 µM; in [6] it was 43.2 µM; in assay [7], more than 100 µM; in [8], more than 100 µM.
`CCCCCCCCCCCCCCCCNCCCN(C)CCCN`: the TGI in assay [1] stood at 34 µM; in assay [2], 43.1 µM; in [3], 34.2 µM; in [4], 46.2 µM; in [5], 39.3 µM; in assay [6], 32.3 µM. This compound registered a TGI in [7] of 42 µM.
On to `CN(C)C(=Nc1nc(=[N+](C)C)ss1)N(C)C`, for which the TGI in assay [1], in assay [2], in [3], in assay [4], in [5] and in assay [6] was more than 100 µM in each case.
